Laboratory results: patent US20070184018A1, “Anthranilamide insecticides” (priority 2004, published 2007)

Tested on: corn planthopper (Peregrinus maidis)
Assay: Test F: control of corn planthopper through contact and/or systemic means on corn (maize) plant
Format: in vivo
Details: sprayed at 250 ppm, nymphs, 6 days, visually assessed
Experimental: Test compounds were formulated using a solution containing 10% acetone, 90% water and 300 ppm X-77™ Spreader Lo-Foam Formula non-ionic surfactant containing alkylarylpolyoxyethylene, free fatty acids, glycols and isopropanol (Loveland Industries, Inc.). The formulated compounds were applied in 1 mL of liquid through a SUJ2 atomizer nozzle with ⅛ JJ custom body (Spraying Systems Co.) positioned 1.27 cm (0.5 inches) above the top of each test unit. All experimental compounds in this screen were sprayed at 250 ppm, replicated three times. After spraying of the formulated test compound, each test unit was allowed to dry for 1 hour and then a black, screened cap was placed on top. The test units were held for 6 days in a growth chamber at 19-21° C. and 50-70% relative humidity. Each test unit was then visually assessed for insect mortality.
For evaluating control of corn planthopper (Peregrinus maidis) through contact and/or systemic means, the test unit consisted of a small open container with a 3-4 day old corn (maize) plant (spike) inside. White sand was added to the top of the soil prior to application. Test compounds were formulated and sprayed at 250 ppm and replicated three times as described for Test C. […] Each test unit was then visually assessed for insect mortality.

In the case of Cc1cc(C#N)cc(C(N)=O)c1NC(=O)c1cc(Br)nn1-c1ccccc1Cl [Compound 67], the mortality is reported as “at least 80%”.
